One compound from patent US7511074B2, “Tetrafluorobenzyl derivatives and pharmaceutical composition for preventing and treating acute and chronic neurodegenerative diseases in central nervous system containing the same” (AmKor Pharma, Inc., priority 2002, dated 2009) can be followed below.

Test [1] deals with Sprague-Dawley rats, compression of T8 spinal cord. As to the kind of experiment: Mitochondrial ROS production after traumatic spinal cord injury. It is filed as in vivo, rat. As to conditions: 50 mg/kg ip immediately after injury; analyzed 48 hr later. As to the method: Adult rats received compression injury at the level of T8 spinal cord, alone (control) or with injections of 2-Hydroxy-TTBA (50 mg/kg, ip) and Mitotracker CM-H2X ROS immediately after injury. Animals were euthanized 2 d later, spinal cord sections sections immunostained with an antibody for NeuN (a neuronal marker protein), and levels of mitochondrial ROS in the dorsal horn neurons (DHN) analyzed by measuring fluorescence intensity of oxidized Mitotracker CM-H2X, mean ±S.E.M. [n=12 rats for each condition (5 spinal cord sections for each rat)]. *, Significant difference from the vehicle control, p<0.05 using the independent t-test.
Sprague-Dawley rats (250-300 g, female) received traumatic spinal cord injury by compression of the dorsal spinal cord. T8 segment of spinal cord was exposed on the dorsal side, compressed with 20 g for 10 min, and then mitochondrial CM-H2X Ros was immediately injected into the spinal cord. 2-Hydroxy-TTBA (50 mg/kg, ip) or a vehicle control (control) was injected with mitochondrial CM-H2X Ros. Levels of mitochondrial ROS in the dorsal horn neurons were analyzed 48 hr later as described above after immunolabeling with anti-NeuN antibody, a neuron-specific marker.

Test [2] has as its system Sprague-dawley rats, four-vessel occlusion. As to the kind of experiment: Mitochondrial ROS generation after transient global ischemia (four-vessel occlusion). The test is classed as in vivo, rat. As to conditions: 50 mg/kg i.p. after reperfusion; 10 min four-vessel occlusion; analyzed 2 hr later. The protocol:
Mitotracker CM-H2X ROS was injected into the lateral ventricle of rat brain at 24 hr before ischemic surgery, and then animals received transient forebrain ischemia for 10 min, with intraperitoneal injections of vehicle (control) or 2-Hydroxy-TTBA (50 mg/kg) at 5 min after reperfusion. The levels of mitochondrial ROS were analyzed 2 hr later, mean ±S.E.M. (n=50-70 neurons randomly chosen from the CA1 sector of the hippocampal formation per each condition). *, Significant difference from the vehicle control, p<0.05 using the independent t-test.
Male adult Sprague-dawley rats (250-300 g) were anesthetized with chloral hydrate and subjected to four-vessel occlusion model (occlusion of both common carotid arteries and vertebral arteries) as previously described [Pulsinelli and Brierley, stroke 10: 267-272 (1979)].
Rats received the intracerebroventricular injections of 0.4 nmol Mitotracker CM-H2X Ros. After 24 hr, rats received four-vessel occlusion for 10 min. Immediately after reperfusion, rats received the intraperitoneal injections of saline (control) or 2-Hydroxy-TTBA (50 mg/kg). Levels of mitochondrial ROS were analyzed 2 hr later by measuring the fluorescence intensity of oxidized Mitotracker CM-H2X Ros in mitochondria.

The subject of the next test is C57/BL6 mice, MPTP. Put plainly: Dopaminergic neuronal death in substantia nigra after MPTP injection. The note with it: 25 or 50 mg/kg ip every 12 hr, MPTP 40 mg/kg s.c. It is filed as in vivo, mouse. As to the method: Bright field photomicrographs showing dopaminergic neurons in the substantia nigra immunostained with anti-tyrosine hydroxylase (TH) antibody 3 d following sham control (A) or the single daily injection of 1-methyl-4-phenyl-1,2,3,6-tetrahydropyridine (MPTP, 40 mg/kg, SC) in C57/BL6 mice, alone (B) or with intraperitoneal injections (2 times per day) of 2-Hydroxy-TTBA (C, 25 mg/kg; D, 50 mg/kg) prior to MPTP administration.
Quantification of TH-positive dopaminergic neurons in the substantia nigral sections 3 d following the single daily injection of (MPTP, 40 mg/kg, SC), alone or with pretreatment with 2-Hydroxy-TTBA as described above. *, Significant difference from the control, p<0.05 using ANOVA and Student-Neuman-Keuls' test.
Bright field photomicrographs showing dopaminergic neurons in the substantia nigra immunostained with anti-tyrosine hydroxylase (TH) antibody […] following sham control (A) or the single daily injection of 1-methyl-4-phenyl-1,2,3,6-tetrahydropyridine (MPTP, 40 mg/kg, SC) in C57/BL6 mice, alone (B) or with intraperitoneal injections (2 times per day) of 2-Hydroxy-TTBA (C, 25 mg/kg; D, 50 mg/kg) prior to MPTP administration.
C57/BL6 mice (male, 8 weeks) received the injections of 40 mg/kg MPTP (s.c.), alone or with 25 or 50 mg/kg 2-Hydroxy-TTBA (ip) every 12 hr per day beginning 30 min before MPTP injection. […]

Test [3] has as its system Mouse cortical cell cultures. Put plainly: SNP (sodium nitroprusside) cytotoxicity in mixed cortical cell cultures (LDH assay). The test is classed as cell-based. The note with it: continuous 5 μM SNP; LDH 24 hr later. The protocol:
Mouse cortical cell cultures (DIV 12-14) were exposed to continuously 5 μM sodium nitroprusside (SNP), alone (●) or with inclusion of 0.1-10 mM aspirin (◯), 1-100 μM trolox (▾), or 0.1-10 μM 2-Hydroxy-TTBA (∇). Neuronal death was analyzed 24 hr later by measuring levels of LDH released into the bathing medium, mean ±SEM (n=9-12 culture wells per condition), scaled to mean LDH efflux value 24 hr after sham wash (=0) and continuous exposure to 500 μM NMDA (=100). *, Significant difference from the vehicle control, p<0.05 using ANOVA and Student-Neuman-Keuls' test.
For mixed neuron-glia culture, mouse cerebral cortices were removed from brains of the 14-16 day-old-fetal mice (E14-16), gently triturated and plated on 24 well plates (2×10^5 cells/plate) precoated with 100 μg/ml poly-D-lysine and 4 μg/ml laminine. Cultures were maintained at 37° C. in a humidified 5% CO2 atmosphere. Plating media consist of Eagles minimal essential media (MEM, Earles salts, supplied glutamine-free) supplemented with 5% horse serum, 5% fetal bovine serum, 26.5 mM bicarbonate, 2 mM glutamine, and 21 mM glucose.
After 7-8 days in vitro (DIV 7-8), 10 μM cytosine arabinofuranoside (Ara-C) was included to halt overgrowth of glia. The drug treatment was carried on DIV 12-15 cortical cell culture. Overall neuronal cell injury was assessed by measuring amount of lactate dehydrogenase (LDH) released into the bathing medium 24 hr after neurotoxic insults as previously described [Koh and Choi, J Neurosci Methods 20:83-90, 1987].
Mixed cortical cell cultures were continuously exposed to 5 μM SNP, a nitric oxide (NO) donor, alone or with inclusion of 0.1-10 μM 2-Hydroxy-TTBA, 1-10 μM trolox or 100-10,000 μM aspirin. Neuronal cell death was analyzed 24 hr later by LDH assay. *, Significant difference from the vehicle control (SNP), p<0.05 using ANOVA and Student-Neuman-Keuls' test.

In the case of `O=C(O)c1cc(NCc2c(F)c(F)c(C(F)(F)F)c(F)c2F)ccc1O` [2-Hydroxy-TTBA, 2-hydroxy-5-(2,3,5,6-tetrafluoro-4-trifluoromethylbenzylamino)benzoic acid], the “mitochondrial ROS production in spinal cord neurons” value in test [1] is recorded as “significantly reduced mitochondrial ROS production”. Besides, the “production of mitochondrial ROS after transient global ischemia” value in test [2] was “reduced production of mitochondrial ROS”. In addition, the “degeneration of dopaminergic neurons in substantia nigra, 3 d” value in the test on C57/BL6 mice, MPTP (3 d) is recorded as “significantly attenuated degeneration”. Besides, the “protective effects on dopaminergic neurons, 7 d” value with C57/BL6 mice, MPTP (7 d) is “protective effects of 2-Hydroxy-TTBA are also observed”. In test [3], the “effect on SNP toxicity” value is listed as “completely blocked” and the “strength relative to trolox in preventing NO toxicity” value is 100 fold.
